Laboratory results as given in US20070196491A1, “DRUG DELIVERY SYSTEMS COMPRISING WEAKLY BASIC DRUGS AND ORGANIC ACIDS” (EURAND, INC., priority 2006, published 2007).
Converted amounts (≈) assume the structure as drawn. Counter-ions that a name gives are not always drawn. Like-named read-outs stand apart in the source and are kept apart here.

Legend:
[1] = cited from earlier work
[2] = intestinal regions; cited from earlier work
[3] = Solubilities of weakly basic drugs in organic acid buffers
[4] = pH 2.14

COc1ccccc1OCCNCC(O)COc1cccc2[nH]c3ccccc3c12 (racemic) [Carvedilol]
aqueous solubility ([1]; above a pH of 9): < 1 µg/mL | aqueous solubility ([1]; at a pH 5): about 100 μg/mL | aqueous solubility ([1]; at a pH of 7): about 23 μg/mL | in vivo absorption within the intestine, decreasing order [2]: jejunum>ileum>colon | solubility (physchem; pH 2.12, aqueous buffer): 2510 µg/mL (≈ 6170 µM) | solubility (physchem; pH 2.28, aqueous buffer): 1360 µg/mL (≈ 3350 µM) | solubility (physchem; pH 2.54, aqueous buffer): 731 µg/mL (≈ 1800 µM) | solubility (physchem; pH 2.94, aqueous buffer): 508 µg/mL (≈ 1250 µM) | solubility (physchem; pH 3.64, aqueous buffer): 121 µg/mL (≈ 298 µM) | solubility (physchem; pH 5.46, aqueous buffer): 105 µg/mL (≈ 258 µM) | solubility (physchem; pH 5.9, aqueous buffer): 28 µg/mL (≈ 68.9 µM)

O=C1CN=C(c2ccccc2Cl)c2cc([N+](=O)[O-])ccc2N1 [Clonazepam]
Solubility (mg/mL) of Clonazepam in Fumaric Acid ([3]; pH of buffer 4.8): 0.0095 mg/mL

OCCN(CCO)c1nc(N2CCCCC2)c2nc(N(CCO)CCO)nc(N3CCCCC3)c2n1 [Dipyridamole]
solubility (in words) ([1]; in dilute acids): soluble | solubility (in words) ([1]; in water, neutral and alkaline buffers): practically insoluble

Cc1nccn1CC1CCc2c(c3ccccc3n2C)C1=O (stereo not shown) [Ondansetron Hydrochloride, Ondansetron hydrochloride]
Solubility of Ondansetron Hydrochloride [4]: 27000 µg/mL | solubility (in words) ([1]; at a pH of 6.8): practically insoluble | solubility (in words) ([1]; at acidic pHs): fairly soluble | Solubility of Ondansetron Hydrochloride ([3]; fumaric acid 0.0025 mg/mL, start pH 4.15, end pH 4.33): 26100 µg/mL | Solubility of Ondansetron Hydrochloride ([3]; fumaric acid 0.01 mg/mL, start pH 3.64, end pH 4.05): 26100 µg/mL | Solubility of Ondansetron Hydrochloride ([3]; fumaric acid 0.25 mg/mL, start pH 2.79, end pH 2.75): 26200 µg/mL | Solubility of Ondansetron Hydrochloride ([3]; fumaric acid 1 mg/mL, start pH 2.48, end pH 2.40): 26100 µg/mL | Solubility of Ondansetron Hydrochloride ([3]; fumaric acid 5 mg/mL, start pH 2.13, end pH 2.01): 26900 µg/mL
